Test results: ChEMBL document CHEMBL1201862, “PubChem BioAssay data set” (2004)
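Step 1: Grow cells in 96-well plates. Step 2: Expose to compound for 48 hours at 5 concentrations. Step 3: Interpolate endpoints linearly; if unreached, use highest concentration. The concentration for 50% growth inhibition is given as GI50.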 Active and inactive are the calls of the source. No stated cut-off is given here; in the data, active = GI50 up to about 1.1 µM and inactive = higher. Where a SMILES comes first, the peptide text is derived from it. The star is where a group is joined. Cbz = O=C(OCc1ccccc1)*

Columns and labels:
Test in all cases: NCI anticancer screen, dose series, 48 h
[1] = system: HCC 2998
[2] = system: OVCAR-5
[3] = system: RPMI-8226
[4] = system: K562
[5] = system: MDA-N
[6] = system: MDA-MB-435
[7] = system: CCRF-CEM
[8] = system: SK-OV-3
[9] = system: CAKI-1
[10] = system: NCI-H226
[11] = system: OVCAR-4
[12] = system: NCI-H522
[13] = system: HCT-15
[14] = system: TK-10
[15] = system: UACC-62
[16] = system: U-251
[17] = system: LOX IMVI
[18] = system: Hs-578T
[19] = system: SK-MEL-5
[20] = system: SF-268

SMILES	GI50 [1]	GI50 [2]	GI50 [3]	GI50 [4]	GI50 [5]	GI50 [6]	GI50 [7]	GI50 [8]	GI50 [9]	GI50 [10]	GI50 [11]	GI50 [12]	GI50 [13] [µM]	GI50 [14]	GI50 [15]	GI50 [16]	GI50 [17]	GI50 [18]	GI50 [19]	GI50 [20]
CC(C)CNC(=O)c1c(NC(=O)c2ccccc2)sc2[nH]c(=O)n(-c3ccccc3)c(=O)c12	> 100 µM (inactive)	> 100 µM (inactive)	> 100 µM (inactive)	31 µM (inactive)	> 100 µM (inactive)	> 100 µM (inactive)	40.5 µM (inactive)	23.8 µM (inactive)	> 42.1 µM (inactive)	> 82.6 µM (inactive)	> 64 µM (inactive)	43.7 µM (inactive)	> 100	37.9 µM (inactive)	64.3 µM (inactive)	31.3 µM (inactive)	> 100 µM (inactive)	14.3 µM (inactive)	> 93.1 µM (inactive)	37.1 µM (inactive)
CC(CCC=O)CCOCc1ccccc1 (stereo not given)	> 100 µM (inactive)	> 89.7 µM (inactive)	53.7 µM (inactive)	> 63.5 µM (inactive)	> 100 µM (inactive)	> 100 µM (inactive)	> 48.5 µM (inactive)	> 100 µM (inactive)	36.8 µM (inactive)	> 100 µM (inactive)	> 77.8 µM (inactive)	34.8 µM (inactive)	> 100	> 42 µM (inactive)	> 100 µM (inactive)	> 100 µM (inactive)	49.8 µM (inactive)	> 100 µM (inactive)	37.4 µM (inactive)	> 100 µM (inactive)
COc1ccc2nc(NC(=O)/C(C#N)=C/c3ccccc3)sc2c1	44.3 µM (inactive)	> 100 µM (inactive)	23.4 µM (inactive)	23.5 µM (inactive)	34.8 µM (inactive)	24.5 µM (inactive)	14.1 µM (inactive)	> 70.6 µM (inactive)	31 µM (inactive)	> 58.2 µM (inactive)	37.6 µM (inactive)	15.2 µM (inactive)	24.7	26.4 µM (inactive)	23.1 µM (inactive)	50.1 µM (inactive)	39.4 µM (inactive)	> 48.5 µM (inactive)	20.8 µM (inactive)	> 56.5 µM (inactive)
COc1ccc(C2=NN(C(=N)S)C(c3ccccc3)C2)cc1 (stereo not given)	44.8 µM (inactive)	58.2 µM (inactive)	23.6 µM (inactive)	30.1 µM (inactive)	27.9 µM (inactive)	31 µM (inactive)	33.2 µM (inactive)	46.6 µM (inactive)	40.6 µM (inactive)	34.6 µM (inactive)	30.3 µM (inactive)	25.5 µM (inactive)	33.6	37.8 µM (inactive)	35.3 µM (inactive)	38.7 µM (inactive)	38.3 µM (inactive)	75.7 µM (inactive)	16.7 µM (inactive)	43.6 µM (inactive)
N#Cc1nc(CCC(C(=O)O)N2C(=O)c3ccccc3C2=O)oc1N (stereo not given)	> 100 µM (inactive)	> 100 µM (inactive)	> 100 µM (inactive)	> 100 µM (inactive)	> 100 µM (inactive)	> 100 µM (inactive)	> 100 µM (inactive)	> 100 µM (inactive)	> 100 µM (inactive)	> 100 µM (inactive)	> 100 µM (inactive)	> 100 µM (inactive)	> 100	> 100 µM (inactive)	> 100 µM (inactive)	> 100 µM (inactive)	> 10 µM (inactive)	> 100 µM (inactive)	> 100 µM (inactive)	> 100 µM (inactive)
CC(=O)n1[nH]c(=O)n(-c2ccccc2)c1=O	> 100 µM (inactive)	> 100 µM (inactive)	> 100 µM (inactive)	> 100 µM (inactive)	> 100 µM (inactive)	> 100 µM (inactive)	> 100 µM (inactive)	> 100 µM (inactive)	> 100 µM (inactive)	> 100 µM (inactive)	> 100 µM (inactive)	> 100 µM (inactive)	> 100	> 100 µM (inactive)	> 100 µM (inactive)	> 100 µM (inactive)	> 100 µM (inactive)	> 100 µM (inactive)	> 100 µM (inactive)	> 100 µM (inactive)
Nc1ccc(C(=O)CC(N)C(=O)O)cc1O (stereo not given)	> 100 µM (inactive)	> 100 µM (inactive)	> 100 µM (inactive)	> 100 µM (inactive)	> 100 µM (inactive)	> 100 µM (inactive)	> 100 µM (inactive)	31.9 µM (inactive)	> 100 µM (inactive)	> 100 µM (inactive)	> 100 µM (inactive)	> 100 µM (inactive)	> 100	> 100 µM (inactive)	> 100 µM (inactive)	> 100 µM (inactive)	> 100 µM (inactive)	> 100 µM (inactive)	> 100 µM (inactive)	> 100 µM (inactive)
CC1CCC2(O)C3(C)CC4(O)OC2(C1O)C1(O)C3(O)C(OC(=O)c2ccc[nH]2)C(O)(C(C)C)C41C (stereo not given)	> 100 µM (inactive)	> 100 µM (inactive)	> 100 µM (inactive)	> 20.9 µM (inactive)	> 100 µM (inactive)	> 100 µM (inactive)	> 100 µM (inactive)	> 100 µM (inactive)	> 100 µM (inactive)	> 100 µM (inactive)	> 100 µM (inactive)	> 100 µM (inactive)	> 100	> 100 µM (inactive)	> 100 µM (inactive)	> 100 µM (inactive)	> 100 µM (inactive)	> 100 µM (inactive)	> 100 µM (inactive)	> 31.6 µM (inactive)
CCOC(=O)CCC(NC(=O)C(Cc1ccccc1)NC(=O)OCc1ccccc1)C(=O)OCC (stereo not drawn) (Cbz-Phe-Glu(OEt)-OEt; configuration not given here)	17.7 µM (inactive)	16.7 µM (inactive)	35 µM (inactive)	37.4 µM (inactive)	17.2 µM (inactive)	18.3 µM (inactive)	31.3 µM (inactive)	16.6 µM (inactive)	16.7 µM (inactive)	16.6 µM (inactive)	17.7 µM (inactive)	15.7 µM (inactive)	20.1	19.4 µM (inactive)	17.9 µM (inactive)	14.9 µM (inactive)	14.7 µM (inactive)	14.8 µM (inactive)	15.5 µM (inactive)	16.2 µM (inactive)
